Measurements from publication PMC11062922 (Nature Chemical Biology, 2023).
Like-named read-outs stand apart in the source and are kept apart here.

Tests used:
PKN2 = target: T1, PKN2 (Homo sapiens, UniProt Q16513); assay: Kinobeads full dose-response competition binding: PKN2; conditions: Gene Name PKN2
T1 construct: a mixture of lysates from five cancer cell lines; endogenous in cells

PIK3CG = target: T2, PIK3CG (Homo sapiens, UniProt P48736); assay: Kinobeads two-dose competition binding: PIK3CG; conditions: sheet "Kinobeads Drugmatrix-nanomolar2" (compounds in rows); read-out: Kinobeads Drugmatrix-nanomolar2: apparent Kd, PIK3CG
T2 construct: endogenous in cells
Source text: Supplement 41589_2023_1459_MOESM3_ESM.xlsx, sheet "Kinobeads Drugmatrix-nanomolar2" | column: PIK3CG

DYRK1A = target: T3, DYRK1A (Homo sapiens, UniProt Q13627); assay: Kinobeads two-dose competition binding: DYRK1A; conditions: read-out: Lestaurtinib Drugmatrix value, Gene Name DYRK1A, target DYRK1A; each column = one Lestaurtinib control replicate (batch_R1-R3)
T3 construct: endogenous in cells

EPHA4 = target: T4, EPHA4 (Homo sapiens, UniProt P54764); assay: Kinobeads two-dose competition binding: EPHA4; conditions: read-out: Lestaurtinib Drugmatrix value, Gene Name EPHA4
T4 construct: endogenous in cells
T4 sequence (P54764 20-986): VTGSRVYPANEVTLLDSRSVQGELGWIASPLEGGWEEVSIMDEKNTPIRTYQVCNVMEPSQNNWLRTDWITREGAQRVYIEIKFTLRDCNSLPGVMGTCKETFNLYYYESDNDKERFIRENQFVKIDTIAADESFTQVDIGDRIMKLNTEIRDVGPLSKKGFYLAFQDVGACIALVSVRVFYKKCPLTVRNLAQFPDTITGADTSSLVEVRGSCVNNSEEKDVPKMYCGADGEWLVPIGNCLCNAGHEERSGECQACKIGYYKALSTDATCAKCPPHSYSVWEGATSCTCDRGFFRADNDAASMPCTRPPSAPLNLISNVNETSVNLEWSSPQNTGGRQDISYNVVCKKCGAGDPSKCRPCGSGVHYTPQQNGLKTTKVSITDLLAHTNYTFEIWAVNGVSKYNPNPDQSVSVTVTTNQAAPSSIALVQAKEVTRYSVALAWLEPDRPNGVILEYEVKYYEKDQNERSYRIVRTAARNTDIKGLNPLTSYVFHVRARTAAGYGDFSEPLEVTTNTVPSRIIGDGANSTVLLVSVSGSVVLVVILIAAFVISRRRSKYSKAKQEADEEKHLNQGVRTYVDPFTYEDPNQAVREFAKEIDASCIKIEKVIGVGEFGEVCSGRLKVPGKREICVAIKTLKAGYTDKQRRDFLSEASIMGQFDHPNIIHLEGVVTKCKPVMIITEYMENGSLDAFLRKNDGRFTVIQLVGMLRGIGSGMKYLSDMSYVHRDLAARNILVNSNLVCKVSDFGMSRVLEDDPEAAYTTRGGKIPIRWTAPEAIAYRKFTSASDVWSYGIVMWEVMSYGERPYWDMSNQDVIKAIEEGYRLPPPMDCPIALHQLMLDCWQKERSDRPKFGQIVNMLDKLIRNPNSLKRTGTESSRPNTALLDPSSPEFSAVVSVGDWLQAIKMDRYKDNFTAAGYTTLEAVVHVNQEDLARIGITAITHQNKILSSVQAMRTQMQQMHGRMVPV

ULK1 = target: T5, ULK1 (Homo sapiens, UniProt O75385); assay: Kinobeads two-dose competition binding: ULK1; conditions: read-out: Lestaurtinib Drugmatrix value, Gene Name ULK1; repeated control pulldowns; each column = experiment id and replicate (Lestaurtinib_02339_R1 ... Lestaurtinib_03260_R3)
T5 construct: to maximize the representation of endogenous proteins; endogenous in cells

EPHB1 = target: T6, EPHB1 (Homo sapiens, UniProt P54762); assay: Kinobeads two-dose competition binding: EPHB1; conditions: read-out: Lestaurtinib Drugmatrix value, Gene Name EPHB1; target EPHB1; each column = one Lestaurtinib control replicate (batch_R1-R3)
T6 construct: endogenous in cells
T6 sequence (P54762 18-984): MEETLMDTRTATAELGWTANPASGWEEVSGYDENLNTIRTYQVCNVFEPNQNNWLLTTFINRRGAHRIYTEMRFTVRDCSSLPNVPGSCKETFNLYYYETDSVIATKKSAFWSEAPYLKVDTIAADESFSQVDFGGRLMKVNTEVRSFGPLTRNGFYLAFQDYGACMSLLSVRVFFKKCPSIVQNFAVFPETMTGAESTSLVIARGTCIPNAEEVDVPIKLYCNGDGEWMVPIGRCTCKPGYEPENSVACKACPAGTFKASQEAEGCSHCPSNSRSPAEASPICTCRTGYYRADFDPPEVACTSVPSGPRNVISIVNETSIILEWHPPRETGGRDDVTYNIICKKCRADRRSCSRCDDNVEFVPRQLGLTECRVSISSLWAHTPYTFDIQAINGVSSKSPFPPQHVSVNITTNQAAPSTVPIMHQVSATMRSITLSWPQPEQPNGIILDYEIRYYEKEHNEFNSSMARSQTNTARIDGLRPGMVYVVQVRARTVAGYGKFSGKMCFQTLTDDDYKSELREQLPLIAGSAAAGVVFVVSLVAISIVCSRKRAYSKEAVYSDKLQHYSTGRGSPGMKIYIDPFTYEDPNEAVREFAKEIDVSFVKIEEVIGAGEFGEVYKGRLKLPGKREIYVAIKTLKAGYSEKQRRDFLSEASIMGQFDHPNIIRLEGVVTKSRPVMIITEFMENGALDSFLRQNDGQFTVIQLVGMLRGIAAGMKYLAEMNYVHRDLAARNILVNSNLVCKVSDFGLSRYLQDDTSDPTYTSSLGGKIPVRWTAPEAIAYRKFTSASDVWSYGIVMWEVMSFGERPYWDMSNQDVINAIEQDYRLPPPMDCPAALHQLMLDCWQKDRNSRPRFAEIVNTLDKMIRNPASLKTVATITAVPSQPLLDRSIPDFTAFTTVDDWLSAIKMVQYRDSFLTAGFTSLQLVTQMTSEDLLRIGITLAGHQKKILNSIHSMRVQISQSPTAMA

FLT4 = target: T7, FLT4 (Homo sapiens, UniProt P35916); assay: Kinobeads two-dose competition binding: FLT4; conditions: read-out: Lestaurtinib Drugmatrix value, Gene Name FLT4
T7 construct: endogenous in cells
T7 sequence (P35916 25-1363): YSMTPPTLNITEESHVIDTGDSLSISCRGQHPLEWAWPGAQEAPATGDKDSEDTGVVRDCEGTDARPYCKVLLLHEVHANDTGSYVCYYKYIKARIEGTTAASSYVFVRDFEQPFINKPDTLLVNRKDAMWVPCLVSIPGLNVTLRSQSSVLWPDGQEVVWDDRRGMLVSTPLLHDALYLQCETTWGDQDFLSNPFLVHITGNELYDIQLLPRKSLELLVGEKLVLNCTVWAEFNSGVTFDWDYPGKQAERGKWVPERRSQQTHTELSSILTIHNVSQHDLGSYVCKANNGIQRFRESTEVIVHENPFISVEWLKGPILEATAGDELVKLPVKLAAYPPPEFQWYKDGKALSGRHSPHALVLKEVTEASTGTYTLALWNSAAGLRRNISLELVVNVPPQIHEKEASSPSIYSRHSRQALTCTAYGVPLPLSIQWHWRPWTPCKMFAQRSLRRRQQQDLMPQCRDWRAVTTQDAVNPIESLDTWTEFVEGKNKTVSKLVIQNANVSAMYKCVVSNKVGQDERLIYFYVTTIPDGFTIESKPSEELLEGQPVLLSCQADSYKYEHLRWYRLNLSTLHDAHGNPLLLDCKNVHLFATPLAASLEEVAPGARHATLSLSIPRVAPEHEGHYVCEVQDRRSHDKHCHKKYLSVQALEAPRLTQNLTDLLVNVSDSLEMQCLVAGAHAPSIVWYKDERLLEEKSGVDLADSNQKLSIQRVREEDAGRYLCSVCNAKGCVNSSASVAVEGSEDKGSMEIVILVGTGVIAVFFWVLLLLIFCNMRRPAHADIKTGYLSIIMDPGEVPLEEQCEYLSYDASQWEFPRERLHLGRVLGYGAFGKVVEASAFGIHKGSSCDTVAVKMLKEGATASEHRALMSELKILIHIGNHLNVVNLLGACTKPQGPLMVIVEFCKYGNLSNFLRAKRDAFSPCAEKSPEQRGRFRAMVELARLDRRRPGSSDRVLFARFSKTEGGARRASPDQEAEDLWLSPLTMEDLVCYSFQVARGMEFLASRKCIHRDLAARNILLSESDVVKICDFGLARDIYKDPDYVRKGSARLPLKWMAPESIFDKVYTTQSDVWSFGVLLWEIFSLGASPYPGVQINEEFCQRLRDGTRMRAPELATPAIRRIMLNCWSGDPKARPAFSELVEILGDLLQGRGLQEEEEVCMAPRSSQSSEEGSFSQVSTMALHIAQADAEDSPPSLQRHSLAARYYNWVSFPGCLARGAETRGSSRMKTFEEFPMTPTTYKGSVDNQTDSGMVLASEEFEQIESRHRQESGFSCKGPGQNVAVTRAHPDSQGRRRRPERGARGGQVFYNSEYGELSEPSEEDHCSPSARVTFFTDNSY

HSP90B1 = target: T8, HSP90B1 (Homo sapiens, UniProt P14625); assay: Kinobeads two-dose competition binding: HSP90B1; conditions: read-out: Lestaurtinib Drugmatrix value, Gene Name HSP90B1
T8 construct: endogenous in cells
T8 sequence (P14625 22-803): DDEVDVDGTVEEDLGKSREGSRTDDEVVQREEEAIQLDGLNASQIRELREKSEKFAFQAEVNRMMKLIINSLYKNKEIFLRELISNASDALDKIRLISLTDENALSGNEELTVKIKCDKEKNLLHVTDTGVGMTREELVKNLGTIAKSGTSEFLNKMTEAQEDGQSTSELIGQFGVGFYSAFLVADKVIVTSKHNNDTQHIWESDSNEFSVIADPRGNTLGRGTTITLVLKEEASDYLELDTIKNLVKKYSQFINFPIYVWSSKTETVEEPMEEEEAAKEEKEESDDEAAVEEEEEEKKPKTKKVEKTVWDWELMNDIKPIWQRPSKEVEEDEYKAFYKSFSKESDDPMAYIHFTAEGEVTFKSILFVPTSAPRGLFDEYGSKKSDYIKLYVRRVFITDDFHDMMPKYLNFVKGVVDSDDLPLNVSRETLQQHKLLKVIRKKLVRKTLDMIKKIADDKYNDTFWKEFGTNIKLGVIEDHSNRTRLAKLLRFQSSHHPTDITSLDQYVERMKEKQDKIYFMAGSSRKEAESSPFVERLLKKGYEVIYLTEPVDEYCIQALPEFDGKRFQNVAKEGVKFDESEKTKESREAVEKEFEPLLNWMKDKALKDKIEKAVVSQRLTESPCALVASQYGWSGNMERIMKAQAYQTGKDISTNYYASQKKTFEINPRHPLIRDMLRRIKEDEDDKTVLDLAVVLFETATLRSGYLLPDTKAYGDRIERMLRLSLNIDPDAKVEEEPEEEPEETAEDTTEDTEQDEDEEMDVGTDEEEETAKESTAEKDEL

[1] = target: T9, endogenous kinases and other proteins enriched by Kinobeads from mixed lysates of K-562, COLO-205, MV-4-11, SK-N-BE(2) and OVCAR-8 (Homo sapiens, UniProt P54762); assay: Kinobeads competition binding profiling, two doses (100 nM and 1 µM); conditions: EPHB1;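 note: inhibitor preincubated 45 min at 4 °C in cell lysate, then bead pulldown. Bound protein quantified by label-free mass spectrometry relative to DMSO vehicle control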
T9 construct: endogenous in cells

CSNK2A2 = CSNK2A2 (Homo sapiens, UniProt P19784); assay: NanoBRET in-cell target engagement in HEK293T cells: CSNK2A2; format: cell-based; set-up: full-length PKN3, CSNK2A1 or CSNK2A2 ORF; host or cells: HEK293T
Sequence of CSNK2A2 (P19784 whole entry, the tested form may be a part): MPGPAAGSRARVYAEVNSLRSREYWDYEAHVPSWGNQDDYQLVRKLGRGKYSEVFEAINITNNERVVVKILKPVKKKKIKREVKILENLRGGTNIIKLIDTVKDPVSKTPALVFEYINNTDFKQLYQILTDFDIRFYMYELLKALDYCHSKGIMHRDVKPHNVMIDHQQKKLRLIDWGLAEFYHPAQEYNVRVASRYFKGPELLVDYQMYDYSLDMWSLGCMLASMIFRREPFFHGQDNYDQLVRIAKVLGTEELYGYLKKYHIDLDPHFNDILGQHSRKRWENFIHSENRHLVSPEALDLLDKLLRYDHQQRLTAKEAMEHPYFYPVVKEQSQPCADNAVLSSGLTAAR
Procedure: The NanoBRET assay was performed as described previously[28],[58]. In brief, full-length PKN3, CSNK2A1 or CSNK2A2 ORF (PKN3 vector was a kind gift of Promega, Vectors for […]: NV2981, NV1191) cloned in frame with a C-terminal NanoLuc-fusion, respectively, were transfected into HEK293T cells using FuGENE HD (Promega, E2312) and proteins were allowed to express for 20 h. Serially diluted inhibitor and NanoBRET Kinase Tracer K5 (Promega, N2530) at 500 nM (PKN3) or NanoBRET Kinase Tracer K10 (Promega, N2840) at 500 nM ([…]) were pipetted into 384-well plates using an Echo acoustic dispenser (Labcyte). The PKN3, CSNK2A1 or CSNK2A2 transfected cells were added at a density of 2 × 10^5 cells per ml after trypsinization and resuspending in Opti-MEM without phenol red (Life Technologies). The system was allowed to equilibrate for 2 h at 37 °C and 5% CO2 before BRET measurements. BRET signaling was measured by adding NanoBRET NanoGlo Substrate and Extracellular NanoLuc Inhibitor (Promega) according to the manufacturer’s protocol. Filtered luminescence was measured on a PHERAstar plate reader (BMG Labtech) equipped with a luminescence filter pair (450 nm BP filter (donor) and 610 LP filter (acceptor)). Competitive displacement data were then graphed using GraphPad Prism software (v.5.01) using a three-parameter curve fit with the following equation Y=bottom+(top−bottom)/1+10^logIC50−X×hillslope
Experiments were performed with at least two biological and two technical replicates.

T1 sequence (Q16513 whole entry): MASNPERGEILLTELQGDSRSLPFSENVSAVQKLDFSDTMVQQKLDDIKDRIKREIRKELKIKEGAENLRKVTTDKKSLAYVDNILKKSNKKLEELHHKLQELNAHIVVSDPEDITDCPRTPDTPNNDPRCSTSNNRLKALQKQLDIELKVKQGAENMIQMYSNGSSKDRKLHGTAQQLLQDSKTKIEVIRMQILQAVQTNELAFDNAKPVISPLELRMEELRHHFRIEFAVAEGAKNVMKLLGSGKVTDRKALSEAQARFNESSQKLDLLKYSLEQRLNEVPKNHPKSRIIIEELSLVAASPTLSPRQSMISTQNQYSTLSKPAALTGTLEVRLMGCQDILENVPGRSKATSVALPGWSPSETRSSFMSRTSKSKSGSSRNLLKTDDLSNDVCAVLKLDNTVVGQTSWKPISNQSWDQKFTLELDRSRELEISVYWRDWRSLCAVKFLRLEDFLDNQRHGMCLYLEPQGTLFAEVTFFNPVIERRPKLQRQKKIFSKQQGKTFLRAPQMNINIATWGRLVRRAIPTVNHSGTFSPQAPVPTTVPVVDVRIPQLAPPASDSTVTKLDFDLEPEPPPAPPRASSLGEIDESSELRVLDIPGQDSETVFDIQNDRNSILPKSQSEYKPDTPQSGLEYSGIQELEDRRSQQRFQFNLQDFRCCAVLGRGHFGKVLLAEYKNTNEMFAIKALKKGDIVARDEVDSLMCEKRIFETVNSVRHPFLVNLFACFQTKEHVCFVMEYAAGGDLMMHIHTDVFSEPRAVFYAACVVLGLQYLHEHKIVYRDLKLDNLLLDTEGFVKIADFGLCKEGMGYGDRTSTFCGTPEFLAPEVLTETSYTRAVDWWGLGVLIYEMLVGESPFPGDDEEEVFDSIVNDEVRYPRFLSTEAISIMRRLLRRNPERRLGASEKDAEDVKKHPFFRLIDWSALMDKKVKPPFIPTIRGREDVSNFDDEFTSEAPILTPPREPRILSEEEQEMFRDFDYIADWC

For `CCn1c(-c2nonc2N)nc2c(C#CC(C)(C)O)nc(OCCN)cc21` [GSK902056A], the “Relative Intensity 0.3nM” value (PKN2; 0.3nM compound, DMSO = 1) was 0.9769, the “Relative Intensity 1nM” value (PKN2; 1nM compound, DMSO = 1) was 1.016 and the “Relative Intensity 3nM” value (PKN2; 3nM compound, DMSO = 1) was 1.0433. For the same compound, the “Relative Intensity 10nM” value (PKN2; 10nM compound, DMSO = 1) was 1.014, the “Relative Intensity 30nM” value (PKN2; 30nM compound, DMSO = 1) was 0.9503 and the “Relative Intensity 100nM” value (PKN2; 100nM compound, DMSO = 1) was 0.8449. The “Relative Intensity 300nM” value (PKN2; 300nM compound, DMSO = 1) was 0.6334, the “Relative Intensity 1000nM” value (PKN2; 1000nM compound, DMSO = 1) was 0.3485 and the Kd (PKN2; EC50 with Correction, doses in nM, read-out: apparent Kd) was 401 nM. It also gave an EC50 (PKN2; eight-dose curve fit, doses in nM) of 401 nM.
Work on `CC(C)N1CC(=O)N(C)c2cnc(Nc3cccc(S(=O)(=O)CCN4CCOCC4)c3)nc21` [BI00009348] yielded a potency estimated from few doses (PIK3CG) of 109 nM.
Compound `C[C@]12O[C@H](C[C@]1(O)CO)n1c3ccccc3c3c4c(c5c6ccccc6n2c5c31)CNC4=O` [Lestaurtinib] has a potency estimated from few doses (DYRK1A) of 820 nM, a potency estimated from few doses (EPHA4) of 268 nM and a potency estimated from few doses (ULK1) of 549 nM. For the same compound, the potency estimated from few doses (EPHB1) was 403 nM, the potency estimated from few doses (FLT4) was 396 nM and the potency estimated from few doses (HSP90B1) was 979 nM.
For `COc1cc(Nc2ncc3c(C)nc(-c4cc5ccccc5[nH]4)n3n2)cc(OC)c1OC` [GW869516X], the “Kinobeads Data” value [1] was “no target”, the IC50 (CSNK2A2; CSNK2A2, replicate 1, read-out: NanoBRET Rep1) was 135 nM and the IC50 (CSNK2A2; CSNK2A2, replicate 2, read-out: NanoBRET Rep2) was 503 nM. It also gave an IC50 (CSNK2A2; HEK293T cells, in-cell target engagement, read-out: IC50 CSNK2A2 NanoBRET) of 319 nM.
